Measured values published in ChEMBL document CHEMBL1155278, “3,4-Diaryl-isoxazoles and -imidazoles as potent dual inhibitors of p38alpha mitogen activated protein kinase and casein kinase 1delta” (J Med Chem, 2009).

Key:
[1] = target: T1, Casein kinase I isoform delta (Homo sapiens, UniProt P48730); assay: Inhibition of recombinant CK1delta kinase domain by Cherenkov counting
Target sequence in this assay (P48730 whole entry, the tested form may be a part, canonical isoform): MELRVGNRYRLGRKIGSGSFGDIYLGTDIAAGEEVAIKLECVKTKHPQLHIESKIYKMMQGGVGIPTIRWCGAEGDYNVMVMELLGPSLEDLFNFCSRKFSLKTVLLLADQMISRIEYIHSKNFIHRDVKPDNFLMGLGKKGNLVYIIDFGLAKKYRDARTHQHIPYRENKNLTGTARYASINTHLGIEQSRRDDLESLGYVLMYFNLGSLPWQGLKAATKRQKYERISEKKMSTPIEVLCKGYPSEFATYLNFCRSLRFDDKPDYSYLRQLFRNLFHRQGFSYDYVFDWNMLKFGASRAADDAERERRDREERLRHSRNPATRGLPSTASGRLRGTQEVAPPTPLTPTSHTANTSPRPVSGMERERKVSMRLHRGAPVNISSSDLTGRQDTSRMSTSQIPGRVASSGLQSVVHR

[2] = target: T2, Casein kinase I isoform delta (Rattus norvegicus, UniProt Q06486); assay: Inhibition of GST-fused rat CK1delta by Cherenkov counting in presence of 20 uM ATP
T2 sequence (Q06486 whole entry, the tested form may be a part, canonical isoform): as the sequence (P48730 whole entry, the tested form may be a part, canonical isoform) above, with I381V counted along it

[3] = target: T3, Mitogen-activated protein kinase 14 (Homo sapiens, UniProt Q16539); assay: Inhibition of p38alpha by Cherenkov counting
T3 sequence (Q16539 whole entry, the tested form may be a part, canonical isoform): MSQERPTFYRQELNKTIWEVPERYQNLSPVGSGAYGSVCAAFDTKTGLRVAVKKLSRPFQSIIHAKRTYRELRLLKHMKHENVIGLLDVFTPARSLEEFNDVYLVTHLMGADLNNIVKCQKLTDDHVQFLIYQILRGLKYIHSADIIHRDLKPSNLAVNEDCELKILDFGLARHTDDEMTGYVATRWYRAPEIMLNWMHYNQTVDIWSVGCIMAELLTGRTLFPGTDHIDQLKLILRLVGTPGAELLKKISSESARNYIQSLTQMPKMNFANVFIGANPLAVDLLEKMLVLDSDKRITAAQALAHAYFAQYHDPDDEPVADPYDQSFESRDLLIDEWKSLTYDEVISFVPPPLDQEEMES

[4] = target: T1, Casein kinase I isoform delta; assay: Inhibition of GST-fused human full length CK1delta expressed in Escherichia coli at 1 uM
Target sequence in this assay (P48730 whole entry, looked up, the tested form may be a part, canonical isoform): as the sequence (P48730 whole entry, the tested form may be a part, canonical isoform) above

[5] = target: T2, Casein kinase I isoform delta
[6] = target: T3, Mitogen-activated protein kinase 14; settings: 10 uM
[7] = Cell cycle arrest in human AC1-M88 cells assessed as accumulation at subG1 phase at 3.32 uM after 48 hrs by propidium iodide staining-based FACS analysis; assay type: functional
[8] = Cell cycle arrest in human AC1-M88 cells assessed as accumulation at G2 phase at 3.32 uM after 48 hrs by propidium iodide staining-based FACS analysis; assay type: functional
[9] = Cell cycle arrest in human AC1-M88 cells assessed as accumulation at S phase at 3.32 uM after 48 hrs by propidium iodide staining-based FACS analysis; assay type: functional
[10] = Cell cycle arrest in human AC1-M88 cells assessed as accumulation at G1 phase at 3.32 uM after 48 hrs by propidium iodide staining-based FACS analysis; assay type: functional
[11] = target: T1, Casein kinase I isoform delta; assay: Inhibition of GST-fused human full length CK1delta expressed in Escherichia coli at 25 uM
Target sequence in this assay (P48730 whole entry, looked up, the tested form may be a part, canonical isoform): as the sequence (P48730 whole entry, the tested form may be a part, canonical isoform) above

[12] = target: Casein kinase I isoform delta (Oryctolagus cuniculus, UniProt P81123); assay: Inhibition of rabbit skeletal muscle CK1delta by liquid scintillation counting
Casein kinase I isoform delta (Oryctolagus cuniculus, UniProt P81123), sequence (P81123 whole entry, canonical isoform): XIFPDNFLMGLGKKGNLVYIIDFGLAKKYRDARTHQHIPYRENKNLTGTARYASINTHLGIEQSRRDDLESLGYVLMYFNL

[13] = target: T1, Casein kinase I isoform delta; assay: Inhibition of human CK1delta
Target sequence in this assay (P48730 whole entry, the tested form may be a part, canonical isoform): as the sequence (P48730 whole entry, the tested form may be a part, canonical isoform) above

| SMILES | IC50 [1] [nM] | IC50 [2] [nM] | IC50 [3] [nM] | other results |
| --- | --- | --- | --- | --- |
| CC(Oc1ccccc1)C(=O)Nc1cc(-c2c(-c3ccc(F)cc3)noc2C(C)C)ccn1 (racemic) | 820 | 340 | 890 |  |
| C[S+]([O-])c1ccc(-c2nc(-c3ccc(F)cc3)c(-c3ccncc3)[nH]2)cc1 (centres undefined) |  |  |  | inhibition [4]: 92% |
| NC(=O)c1ccc(-c2nc(-c3ccc4c(c3)OCCO4)c(-c3ccccn3)[nH]2)cc1 |  |  |  | IC50 [5]: 300 nM; inhibition [6]: 62% |
| CC(C)c1onc(-c2ccc(F)cc2)c1-c1ccnc(NC2CCOCC2)c1 | 2500 |  | 60 |  |
| CC(=O)Nc1cc(-c2c(-c3ccc(F)cc3)noc2C(C)C)ccn1 | 700 | 330 | 300 |  |
| COc1ccc(/C=C/C(=O)Nc2cc(-c3c(-c4ccc(F)cc4)noc3C(C)C)ccn2)c(OC)c1 | 33 | 47 | 2520 | Activity [7]: 34.4%; Activity [8]: 14.8%; Activity [9]: 14.8%; Activity [10]: 33% |
| NCCNS(=O)(=O)c1ccc(Cl)c2ccncc12 |  |  |  | inhibition [11]: 88%; IC50 [12]: 10000 nM |
| CC(C)c1onc(-c2ccc(F)cc2)c1-c1ccnc(N[C@H](C)c2ccccc2)c1 |  |  | 450 |  |
| Oc1ccc(-c2nc(-c3ccc(F)cc3)c(-c3ccncc3)[nH]2)cc1 |  |  |  | inhibition [4]: 79% |
| COc1cc(OC)c(C=C2C(O)=Nc3ccccc32)c(OC)c1 [IC261] |  |  |  | IC50 [13]: 1000 nM |
| CC(C)c1onc(-c2ccc(F)cc2)c1-c1ccnc(N[C@@H](C)c2ccccc2)c1 | 1600 |  | 6 |  |
| CCC(C)Nc1cc(-c2c(-c3ccc(F)cc3)noc2C(C)C)ccn1 (centres undefined) |  |  | 30 |  |
| CC(C)c1onc(-c2ccc(F)cc2)c1-c1ccnc(NC(=O)Cc2ccc(F)cc2)c1 | 110 | 90 | 1560 |  |
